Like-named read-outs stand apart in the source and are kept apart here.
Experiments:
[1] = Pharmacokinetics of AT and NT in healthy volunteers after a single dose of 25 mg amitriptyline; format: in vivo, human; settings: human, plasma, po, 25 mg, single oral 25 mg AT; for Cmax: read-out: Cmax
Source text: In order to enrich the study sample with the less frequent functionally deficient OCT1 variants, participants were selected based on OCT1 genotype from an internal database at the Institute of Clinical Pharmacology of the University Medical Center Göttingen. All volunteers who are listed in the internal database had agreed to it and the database was approved by the ethics committee of the University of Göttingen. […] Additional subjects with heterozygous genotypes were included to provide a better understanding of the effects of specific variants and the mode of inheritance. All volunteers gave their written informed consent before participation in the study. The study was approved by the ethics committee of the University of Göttingen and the German Federal Institute for Drugs and Medical Devices (BfArM). It was registered at the clinical trials databases Clinicaltrials.gov (NCT02054299) and EudraCT (number 2012-003546-33). […] Volunteers who underwent regular drug treatments other than oral contraceptives or who suffered from any relevant chronic illness, as well as pregnant or lactating women, were not included. All subjects were healthy according to a detailed medical history, medical examination, electrocardiogram, urine status and clinical chemistry, and haematology parameters (sodium, potassium, total bilirubin, aspartate aminotransferase, alanine-aminotransferase, creatinine, C-reactive protein, thyroid-stimulating hormone, haemoglobin, erythrocyte, thrombocyte, and leucocyte counts). […] After centrifugation (13,000 rpm, 15 min, room temperature), two-thirds of the supernatant were transferred to a new reaction tube and evaporated at 40°C under nitrogen flow. The residue was reconstituted under shaking in 0.1% methanoic acid and briefly centrifuged before quantification using a Nexera UHPLC system (Shimadzu, Kyoto, Japan) coupled to an API 4000 tandem mass spectrometer (AB Sciex, Darmstadt, Germany). […] PerkinElmer, Rodgau, Germany) with a Phenomenex C18 pre-column (4 × 2 mm, Phenomenex, Aschaffenburg, Germany). […] The lower limit of quantification was 0.5 ng/ml for AT and 0.1 ng/ml for NT. […] The mass spectrometry detection parameters are listed in Supplementary Table S1. For the study in healthy volunteers, the primary endpoints were the AUCs of plasma AT and NT concentrations. Secondary endpoints were the other pharmacokinetic parameters of AT and NT, as well as heart rate, blood pressure, pupil size effects, and possible adverse events (headache, fatigue, visual or hearing impairments, restlessness, nausea, dizziness, dry mouth, tremor, as well as sensations of hypothermia and heart palpitations determined using a visual analogue scale test). Pharmacokinetic parameters were calculated by non-compartmental analysis using Phoenix 64 WinNonlin version 6.3 (Certara Inc., Princeton, NJ, United States). AUCinf of AT was calculated from the time of dosing using the linear/log trapezoidal rule and extrapolated to infinity based on the last predicted concentration and using the terminal elimination rate constant (lambda z). AUC of NT was calculated from the time of dosing until the last measurement at 48 h using the linear/log trapezoidal rule, as a decline in NT concentrations was not observed in some subjects and extrapolation to infinity thus not possible.

[2] = Plasma concentrations per dose unit of AT and NT in depressive disorder patients (75 mg AT twice daily); format: in vivo, human; settings: 12-hour-trough levels
Experimental: Briefly, 75 mg AT was administered twice daily at 12 h dosing intervals. Any drugs or dietary ingredients that might interfere with CYP2D6 or CYP2C19 metabolism were avoided whenever possible. Blood samples (12-hour-trough levels) were taken on days 0, 7, 14, 18, and 21, centrifuged, and stored at 4°C for genotyping (CYP2D6 and CYP2C19) and concentration analyses. The blood samples were subsequently stored at −20°C and later genotyped for OCT1.
The serum concentrations in depressive disorder patients were determined either by the Emit® immunoassay specific for AT and NT or a commercial high-performance liquid chromatography assay (Bio-Rad Laboratories GmbH, Feldkirchen, Germany), as described before ([Steimer et al., 2004]; [Steimer et al., 2005]).
The correlation between AT and NT plasma AUC (study in healthy volunteers) or mean plasma concentration per dose unit (study in depressive disorder patients) and OCT1, CYP2D6, and CYP2C19 genotypes were calculated using the Jonckheere-Terpstra non-parametric analysis, which takes into consideration the a priori ordering (or trend) in gene activities from zero to normal to ultra-rapid (for CYP2C19 and CYP2D6). To do so, the genotypes were categorized into 0, 1, or 2 active alleles for OCT1, into 0, 0.5, 1, 1.5, 2, 2.5, or 3 active alleles for CYP2D6, and into 0, 1, 1.5, 2, 2.5, or 3 active alleles for CYP2C19, depending on their known effects on transporter/enzyme activity. OCT1 alleles *2, *3, *4, *5 were classified as being zero active. […] A semi-quantitative gene dosage was calculated for CYP2D6, as has been described earlier ([Steimer et al., 2004]). For calculating a CYP2C19 activity score, CYP2C19*2 was regarded as zero active, CYP2C19*1 was classified as 1, and CYP2C19*17 as 1.5. Additional multiple linear regression analyses included sex, age, body mass index, and glomerular filtration rate.

[3] = both sexes, healthy volunteers, 0 active OCT1 alleles (n = 12)
[4] = both sexes, healthy volunteers, 1 active OCT1 allele (n = 9)
[5] = both sexes, healthy volunteers, 2 active OCT1 alleles (n = 14)
[6] = both sexes, healthy volunteers, CYP2C19 activity score 1 (n = 5), mean
[7] = both sexes, healthy volunteers, CYP2C19 activity score 1.5 (n = 2), mean
[8] = both sexes, healthy volunteers, CYP2C19 activity score 2 (n = 16), mean
[9] = both sexes, healthy volunteers, CYP2C19 activity score 2.5 (n = 10), mean
[10] = both sexes, healthy volunteers, CYP2D6 activity 0 (n = 3), mean
[11] = both sexes, healthy volunteers, CYP2D6 activity 0.5 (n = 2), mean
[12] = both sexes, healthy volunteers, CYP2D6 activity 1 (n = 10), mean
[13] = both sexes, healthy volunteers, CYP2D6 activity 1.5 (n = 6), mean
[14] = both sexes, healthy volunteers, CYP2D6 activity 2 (n = 11), mean
[15] = both sexes, healthy volunteers, CYP2D6 activity 2.5 (n = 1), mean
[16] = both sexes, healthy volunteers, CYP2D6 activity 3 (n = 2), mean
[17] = healthy volunteers, CYP2C19 activity score 0 (n = 1), mean
[18] = healthy volunteers, CYP2C19 activity score 3 (n = 1), mean

## CNCCC=C1c2ccccc2CCc2ccccc21 [Nortriptyline, nortriptyline]
[1]; both sexes, 35 healthy volunteers, read-out: AUC48h (range over all volunteers)
  AUC(0-t): 0.0393 to 0.284 µg·h/mL
[1]; both sexes, healthy volunteers, 0 active OCT1 alleles (n = 12), read-out: AUC48h
  AUC(0-t): 0.0902 ± 0.0271 µg·h/mL
[1]; [3]
  Cmax: 2.7 ± 0.7 ng/mL
  Tmax: 6.2 ± 1.4 h
  half-life: 46.1 ± 24.4 h
[1]; both sexes, healthy volunteers, 1 active OCT1 allele (n = 9), read-out: AUC48h
  AUC(0-t): 0.0883 ± 0.0322 µg·h/mL
[1]; [4]
  Cmax: 2.6 ± 0.9 ng/mL
  Tmax: 6.7 ± 1.3 h
  half-life: 56.4 ± 31.3 h
[1]; both sexes, healthy volunteers, 2 active OCT1 alleles (n = 14), read-out: AUC48h
  AUC(0-t): 0.126 ± 0.0635 µg·h/mL
[1]; [5]
  Cmax: 3.4 ± 1.4 ng/mL
  Tmax: 11.5 ± 8.7 h
  half-life: 40.1 ± 38.2 h
[1]; both sexes, healthy volunteers, CYP2C19 activity score 1 (n = 5), mean, read-out: AUC48h
  AUC(0-t): 0.0694 µg·h/mL
[1]; [6]
  Cmax: 2.1 ng/mL
  Tmax: 6 h
  half-life: 48.2 h
[1]; both sexes, healthy volunteers, CYP2C19 activity score 1.5 (n = 2), mean, read-out: AUC48h
  AUC(0-t): 0.123 µg·h/mL
[1]; [7]
  Cmax: 3.5 ng/mL
  Tmax: 14.1 h
  half-life: 25.1 h
[1]; both sexes, healthy volunteers, CYP2C19 activity score 2 (n = 16), mean, read-out: AUC48h
  AUC(0-t): 0.103 µg·h/mL
[1]; [8]
  Cmax: 3 ng/mL
  Tmax: 6.6 h
  half-life: 47.7 h
[1]; both sexes, healthy volunteers, CYP2C19 activity score 2.5 (n = 10), mean, read-out: AUC48h
  AUC(0-t): 0.108 µg·h/mL
[1]; [9]
  Cmax: 3.1 ng/mL
  Tmax: 9.9 h
  half-life: 44.1 h
[1]; both sexes, healthy volunteers, CYP2D6 activity 0 (n = 3), mean, read-out: AUC48h
  AUC(0-t): 0.145 µg·h/mL
[1]; [10]
  Cmax: 3.48 ng/mL
  Tmax: 18.9 h
  half-life: 92 h
[1]; both sexes, healthy volunteers, CYP2D6 activity 0.5 (n = 2), mean, read-out: AUC48h
  AUC(0-t): 0.222 µg·h/mL
[1]; [11]
  Cmax: 5.54 ng/mL
  Tmax: 15.5 h
  half-life: 105 h
[1]; both sexes, healthy volunteers, CYP2D6 activity 1 (n = 10), mean, read-out: AUC48h
  AUC(0-t): 0.104 µg·h/mL
[1]; [12]
  Cmax: 2.94 ng/mL
  Tmax: 6.2 h
  half-life: 64.2 h
[1]; both sexes, healthy volunteers, CYP2D6 activity 1.5 (n = 6), mean, read-out: AUC48h
  AUC(0-t): 0.0983 µg·h/mL
[1]; [13]
  Cmax: 2.79 ng/mL
  Tmax: 7 h
  half-life: 51.9 h
[1]; both sexes, healthy volunteers, CYP2D6 activity 2 (n = 11), mean, read-out: AUC48h
  AUC(0-t): 0.0818 µg·h/mL
[1]; [14]
  Cmax: 2.57 ng/mL
  Tmax: 7.7 h
  half-life: 29.9 h
[1]; both sexes, healthy volunteers, CYP2D6 activity 2.5 (n = 1), mean, read-out: AUC48h
  AUC(0-t): 0.0891 µg·h/mL
[1]; [15]
  Cmax: 3.11 ng/mL
  Tmax: 6 h
  half-life: 25 h
[1]; both sexes, healthy volunteers, CYP2D6 activity 3 (n = 2), mean, read-out: AUC48h
  AUC(0-t): 0.0711 µg·h/mL
[1]; [16]
  Cmax: 2.49 ng/mL
  Tmax: 6 h
  half-life: 26.9 h
[1]; both sexes, healthy volunteers, OCT1 genotype *1 / *1 (n 14), mean ± standard deviation, read-out: AUC48h
  AUC(0-t): 0.126 ± 0.063 µg·h/mL
[1]; both sexes, healthy volunteers, OCT1 genotype *1 / *2 (n 3), mean ± standard deviation, read-out: AUC48h
  AUC(0-t): 0.115 ± 0.024 µg·h/mL
[1]; both sexes, healthy volunteers, OCT1 genotype *1 / *3 (n 4), mean ± standard deviation, read-out: AUC48h
  AUC(0-t): 0.078 ± 0.034 µg·h/mL
[1]; both sexes, healthy volunteers, OCT1 genotype *1 / *4 (n 2), mean ± standard deviation, read-out: AUC48h
  AUC(0-t): 0.069 ± 0.017 µg·h/mL
[1]; both sexes, healthy volunteers, OCT1 genotype *2 / *2 (n 3), mean ± standard deviation, read-out: AUC48h
  AUC(0-t): 0.109 ± 0.045 µg·h/mL
[1]; both sexes, healthy volunteers, OCT1 genotype *2 / *3 (n 4), mean ± standard deviation, read-out: AUC48h
  AUC(0-t): 0.09 ± 0.027 µg·h/mL
[1]; both sexes, healthy volunteers, OCT1 genotype *2 / *5 (n 1), read-out: AUC48h
  AUC(0-t): 0.083 µg·h/mL
[1]; both sexes, healthy volunteers, OCT1 genotype *3 / *3 (n 3), mean ± standard deviation, read-out: AUC48h
  AUC(0-t): 0.077 ± 0.011 µg·h/mL
[1]; both sexes, healthy volunteers, OCT1 genotype *3 / *4 (n 1), read-out: AUC48h
  AUC(0-t): 0.078 µg·h/mL
[1]; healthy volunteers, CYP2C19 activity score 0 (n = 1), mean, read-out: AUC48h
  AUC(0-t): 0.0393 µg·h/mL
[1]; [17]
  Cmax: 1.05 ng/mL
  Tmax: 6 h
  half-life: 106 h
[1]; healthy volunteers, CYP2C19 activity score 3 (n = 1), mean, read-out: AUC48h
  AUC(0-t): 0.284 µg·h/mL
[1]; [18]
  Cmax: 6.5 ng/mL
  Tmax: 24.9 h
  half-life: 145 h
[2]; OCT1 genotype *1 / *1 (n 27), mean ± standard deviation
  Mean plasma concentration per dose unit: 34.0 ± 18.3
[2]; OCT1 genotype *1 / *2 (n 14), mean ± standard deviation
  Mean plasma concentration per dose unit: 33.5 ± 14.6
[2]; OCT1 genotype *1 / *3 (n 2), mean ± standard deviation
  Mean plasma concentration per dose unit: 34.6 ± 12.4
[2]; OCT1 genotype *1 / *4 (n 1)
  Mean plasma concentration per dose unit: 39.6
[2]; OCT1 genotype *2 / *2 (n 3), mean ± standard deviation
  Mean plasma concentration per dose unit: 40.6 ± 26.7
[2]; OCT1 genotype *2 / *3 (n 2), mean ± standard deviation
  Mean plasma concentration per dose unit: 28.0 ± 13.2
[2]; OCT1 genotype *3 / *3 (n 1)
  Mean plasma concentration per dose unit: 29.9
